According to patent publication US11065257B2, “Substituted pyrazoloazepin-4-ones and their use as phosphodiesterase inhibitors” (LEO Pharma A/S, priority 2016, dated 2021):
pIC50: −log10 of the molar value.

target: T1, human PDE4D catalytic domain (Homo sapiens, UniProt Q08499); test: PDE4 Assay; assay type: biochemical; settings: human PDE4D catalytic domain (S380-L740), TR-FRET with FAM-cAMP; expressed as a range of IC50; read-out: PDE4 Potency Range
T1 construct: UniProt no; Q08499 [S380-L740]
T1 sequence (Q08499 380-740): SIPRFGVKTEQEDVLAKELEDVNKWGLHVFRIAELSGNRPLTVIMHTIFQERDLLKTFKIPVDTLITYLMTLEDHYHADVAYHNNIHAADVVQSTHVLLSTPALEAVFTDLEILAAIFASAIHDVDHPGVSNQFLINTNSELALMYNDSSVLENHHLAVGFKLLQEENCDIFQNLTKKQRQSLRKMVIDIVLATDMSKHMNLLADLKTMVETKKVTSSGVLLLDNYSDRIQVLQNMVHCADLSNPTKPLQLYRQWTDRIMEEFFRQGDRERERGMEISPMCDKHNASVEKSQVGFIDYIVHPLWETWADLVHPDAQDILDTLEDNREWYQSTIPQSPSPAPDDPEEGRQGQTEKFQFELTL
Procedure: The human PDE4D catalytic domain (UniProt no. Q08499 [S380-L740]) was incubated with a mixture of non-labelled cAMP (cyclic adenosine monophosphate) and fluorescein amidite (FAM) conjugated cAMP and titrated test or reference compound. Following brief incubation the enzymatic reaction was stopped by addition of binding buffer containing nanoparticles with immobilized trivalent metal ions capable of binding 1) AMP phospho groups and 2) terbium (Tb) donor fluorophores. Subsequent excitation of the Tb donor triggers time-resolved FRET to adjacent FAM acceptor molecules resulting in light emission. In the presence of a PDE4 inhibitor, AMP generation was reduced resulting in a lower fluorescence signal. The cAMP phosphodiester is not bound by the detection system.
The results were calculated as the molar concentrations resulting in 50% inhibition of the substrate cleavage compared to controls samples, and are expressed as a range of IC50 (nM).

| Structure (SMILES) | pIC50 |
| --- | --- |
| CCc1nn(CCCOC(=O)c2cnc(C)o2)c2c1C(=O)NCC1(CCOCC1)C2 [Example 48, 3-(3-ethyl-4-oxo-spiro[6,8-dihydro-5H-pyrazolo[4,3-c]azepine-7,4′-tetrahydropyran]-1-yl)propyl 2-methyloxazole-5-carboxylate] | 6.30 to 7.00 |
| CCc1nn(CCOC(=O)c2cc(C)on2)c2c1C(=O)NCC1(CCOCC1)C2 [Example 4, 2-(3-ethyl-4-oxo-spiro[6,8-dihydro-5H-pyrazolo[4,3-c]azepine-7,4′-tetrahydropyran]-1-yl)ethyl 5-methylisoxazole-3-carboxylate] | 6.30 to 7.00 |
| CCc1nn(CCCOC(=O)c2cc(C)nnc2C)c2c1C(=O)NCC1(CCOCC1)C2 [Example 88, 3-(3-ethyl-4-oxo-spiro[6,8-dihydro-5H-pyrazolo[4,3-c]azepine-7,4′-tetrahydropyran]-1-yl)propyl 3,6-dimethylpyridazine-4-carboxylate] | < 6.30 |
| CCc1nn(CCCOC(=O)C2CN(C(C)=O)C2)c2c1C(=O)NCC1(CCOCC1)C2 [Example 77, 3-(3-ethyl-4-oxo-spiro[6,8-dihydro-5H-pyrazolo[4,3-c]azepine-7,4′-tetrahydropyran]-1-yl)propyl 1-acetylazetidine-3-carboxylate] | < 6.30 |
| CCc1nn(CCCOC(=O)c2cnco2)c2c1C(=O)NCC1(CCOCC1)C2 [Example 24, 3-(3-ethyl-4-oxo-spiro[6,8-dihydro-5H-pyrazolo[4,3-c]azepine-7,4′-tetrahydropyran]-1-yl)propyl oxazole-5-carboxylate] | < 6.30 |
| CCc1nn(CCCOC(=O)c2cnnn2C)c2c1C(=O)NCC1(CCOCC1)C2 [Example 49, 3-(3-ethyl-4-oxo-spiro[6,8-dihydro-5H-pyrazolo[4,3-c]azepine-7,4′-tetrahydropyran]-1-yl)propyl 3-methyltriazole-4-carboxylate] | 6.30 to 7.00 |
| CCc1nn(CCCOC(=O)c2ccnn2C)c2c1C(=O)NCC1(CCOCC1)C2 [Example 35, 3-(3-ethyl-4-oxo-spiro[6,8-dihydro-5H-pyrazolo[4,3-c]azepine-7,4′-tetrahydropyran]-1-yl)propyl 2-methylpyrazole-3-carboxylate] | 6.30 to 7.00 |
| CCc1noc(CC)c1C(=O)OCCCn1nc(CC)c2c1CC1(CCOCC1)CNC2=O [Example 97, 3-(3-ethyl-4-oxo-spiro[6,8-dihydro-5H-pyrazolo[4,3-c]azepine-7,4′-tetrahydropyran]-1-yl)propyl 3,5-diethylisoxazole-4-carboxylate] | 6.30 to 7.00 |
| CCc1nn(CCCOC(=O)c2cn[nH]c2)c2c1C(=O)NCC1(CCOCC1)C2 [Example 20, 3-(3-ethyl-4-oxo-spiro[6,8-dihydro-5H-pyrazolo[4,3-c]azepine-7,4′-tetrahydropyran]-1-yl)propyl 1H-pyrazole-4-carboxylate] | 6.30 to 7.00 |
| CCc1nn(CCCOC(=O)c2csnn2)c2c1C(=O)NCC1(CCOCC1)C2 [Example 57, 3-(3-ethyl-4-oxo-spiro[6,8-dihydro-5H-pyrazolo[4,3-c]azepine-7,4′-tetrahydropyran]-1-yl)propyl thiadiazole-4-carboxylate] | 6.30 to 7.00 |
| CCc1nn(CCCOC(=O)C2CCN(C(C)=O)CC2)c2c1C(=O)NCC1(CCOCC1)C2 [Example 99, 3-(3-ethyl-4-oxo-spiro[6,8-dihydro-5H-pyrazolo[4,3-c]azepine-7,4′-tetrahydropyran]-1-yl)propyl 1-acetylpiperidine-4-carboxylate] | < 6.30 |
| CCc1nn(CCCOC(=O)c2ccn(C)n2)c2c1C(=O)NCC1(CCOCC1)C2 [Example 32, 3-(3-ethyl-4-oxo-spiro[6,8-dihydro-5H-pyrazolo[4,3-c]azepine-7,4′-tetrahydropyran]-1-yl)propyl 1-methylpyrazole-3-carboxylate] | < 6.30 |
| CCc1nn(CCCOC(=O)c2cc(C)nc(C)c2)c2c1C(=O)NCC1(CCOCC1)C2 [Example 86, 3-(3-ethyl-4-oxo-spiro[6,8-dihydro-5H-pyrazolo[4,3-c]azepine-7,4′-tetrahydropyran]-1-yl)propyl 2,6-dimethylpyridine-4-carboxylate] | 6.30 to 7.00 |
| CCc1nn(CCOC(=O)Cc2csc(C)n2)c2c1C(=O)NCC1(CCOCC1)C2 [Example 15, 2-(3-ethyl-4-oxo-spiro[6,8-dihydro-5H-pyrazolo[4,3-c]azepine-7,4′-tetrahydropyran]-1-yl)ethyl 2-(2-methylthiazol-4-yl)acetate] | < 6.30 |
| CCc1nn(CCCOC(=O)c2nonc2C)c2c1C(=O)NCC1(CCOCC1)C2 [Example 51, 3-(3-ethyl-4-oxo-spiro[6,8-dihydro-5H-pyrazolo[4,3-c]azepine-7,4′-tetrahydropyran]-1-yl)propyl 4-methyl-1,2,5-oxadiazole-3-carboxylate] | 6.30 to 7.00 |
| CCc1nn(CCCOC(=O)c2ccsn2)c2c1C(=O)NCC1(CCOCC1)C2 [Example 53, 3-(3-ethyl-4-oxo-spiro[6,8-dihydro-5H-pyrazolo[4,3-c]azepine-7,4′-tetrahydropyran]-1-yl)propyl isothiazole-3-carboxylate] | 6.30 to 7.00 |
| CCc1nn(CCCOC(=O)c2cc(C)ns2)c2c1C(=O)NCC1(CCOCC1)C2 [Example 78, 3-(3-ethyl-4-oxo-spiro[6,8-dihydro-5H-pyrazolo[4,3-c]azepine-7,4′-tetrahydropyran]-1-yl)propyl 3-methylisothiazole-5-carboxylate] | 6.30 to 7.00 |
| CCc1nn(CCCOC(=O)c2ccnc(C)n2)c2c1C(=O)NCC1(CCOCC1)C2 [Example 68, 3-(3-ethyl-4-oxo-spiro[6,8-dihydro-5H-pyrazolo[4,3-c]azepine-7,4′-tetrahydropyran]-1-yl)propyl 2-methylpyrimidine-4-carboxylate] | < 6.30 |
| CCc1nn(CCOC(=O)c2ccno2)c2c1C(=O)NCC1(CCOCC1)C2 [Example 1, 2-(3-ethyl-4-oxo-spiro[6,8-dihydro-5H-pyrazolo[4,3-c]azepine-7,4′-tetrahydropyran]-1-yl)ethyl isoxazole-5-carboxylate] | 6.30 to 7.00 |
| CCc1nn(CCCOC(=O)c2cnc(C)[nH]2)c2c1C(=O)NCC1(CCOCC1)C2 [Example 36, 3-(3-ethyl-4-oxo-spiro[6,8-dihydro-5H-pyrazolo[4,3-c]azepine-7,4′-tetrahydropyran]-1-yl)propyl 2-methyl-1H-imidazole-4-carboxylate] | 6.30 to 7.00 |
| CCc1nn(CCCOC(=O)c2cc(C)ccn2)c2c1C(=O)NCC1(CCOCC1)C2 [Example 63, 3-(3-ethyl-4-oxo-spiro[6,8-dihydro-5H-pyrazolo[4,3-c]azepine-7,4′-tetrahydropyran]-1-yl)propyl 4-methylpyridine-2-carboxylate] | < 6.30 |
| CCc1nn(CCOC(=O)c2cc(C)n(C)n2)c2c1C(=O)NCC1(CCOCC1)C2 [Example 10, 2-(3-ethyl-4-oxo-spiro[6,8-dihydro-5H-pyrazolo[4,3-c]azepine-7,4′-tetrahydropyran]-1-yl)ethyl 1,5-dimethylpyrazole-3-carboxylate] | < 6.30 |
| CCc1nn(CCCOC(=O)c2ccnnc2)c2c1C(=O)NCC1(CCOCC1)C2 [Example 30, 3-(3-ethyl-4-oxo-spiro[6,8-dihydro-5H-pyrazolo[4,3-c]azepine-7,4′-tetrahydropyran]-1-yl)propyl pyridazine-4-carboxylate] | < 6.30 |
| CCc1nn(CCCOC(=O)c2nc(C)oc2C)c2c1C(=O)NCC1(CCOCC1)C2 [Example 76, 3-(3-ethyl-4-oxo-spiro[6,8-dihydro-5H-pyrazolo[4,3-c]azepine-7,4′-tetrahydropyran]-1-yl)propyl 2,5-dimethyloxazole-4-carboxylate] | < 6.30 |
| CCc1nn(CCCOC(=O)c2ncccc2C)c2c1C(=O)NCC1(CCOCC1)C2 [Example 62, 3-(3-ethyl-4-oxo-spiro[6,8-dihydro-5H-pyrazolo[4,3-c]azepine-7,4′-tetrahydropyran]-1-yl)propyl 3-methylpyridine-2-carboxylate] | < 6.30 |
| CCc1nn(CCCOC(=O)c2cnsc2)c2c1C(=O)NCC1(CCOCC1)C2 [Example 55, 3-(3-ethyl-4-oxo-spiro[6,8-dihydro-5H-pyrazolo[4,3-c]azepine-7,4′-tetrahydropyran]-1-yl)propyl isothiazole-4-carboxylate] | 6.30 to 7.00 |
| CCc1nn(CCCOC(=O)c2c[nH]nn2)c2c1C(=O)NCC1(CCOCC1)C2 [Example 25, 3-(3-ethyl-4-oxo-spiro[6,8-dihydro-5H-pyrazolo[4,3-c]azepine-7,4′-tetrahydropyran]-1-yl)propyl 1H-triazole-4-carboxylate] | 6.30 to 7.00 |
| CCc1nn(CCCOC(=O)c2sc(OC)nc2C)c2c1C(=O)NCC1(CCOCC1)C2 [Example 100, 3-(3-ethyl-4-oxo-spiro[6,8-dihydro-5H-pyrazolo[4,3-c]azepine-7,4′-tetrahydropyran]-1-yl)propyl 2-methoxy-4-methyl-thiazole-5-carboxylate] | 6.30 to 7.00 |
| CCc1nn(CCOC(=O)c2cnc(C)o2)c2c1C(=O)NCC1(CCOCC1)C2 [Example 6, 2-(3-ethyl-4-oxo-spiro[6,8-dihydro-5H-pyrazolo[4,3-c]azepine-7,4′-tetrahydropyran]-1-yl)ethyl 2-methyloxazole-5-carboxylate] | < 6.30 |
| CCc1nn(CCCOC(=O)C2CCSC2)c2c1C(=O)NCC1(CCOCC1)C2 (stereo not drawn) [Example 60, 3-(3-ethyl-4-oxo-spiro[6,8-dihydro-5H-pyrazolo[4,3-c]azepine-7,4′-tetrahydropyran]-1-yl)propyl tetrahydrothiophene-3-carboxylate] | 6.30 to 7.00 |
